Assay results from US11753445B2, “Therapeutic peptides” (COHBAR, INC., priority 2016, dated 2023).
Peptide text beside a SMILES is read from it.

Test system: 3T3-L1 Adipocytes
Experiment: Free fatty acid levels in cultured mouse 3T3-L1 adipocytes, isoproterenol stimulated (Example 2)
Format: cell-based
Conditions: test peptides 25 μM; isoproterenol 1 nM
How it was run: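 Release of free fatty acids, read at 540 nm, was stimulated with 1 nM isoproterenol for 3 h in mouse 3T3-L1 adipocytes (12–17 days of differentiation). Cells were pre-exposed to 25 μM peptide for 18–20 h plus 1 h, with peptide kept in during stimulation. Values are background-subtracted and normalised to isoproterenol alone.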

SMILES	Free Fatty Acid Levels in 3T3-L1 Adipocytes Expressed as a Percent of Isoproterenol Control: Percent of Control Value [%]
CC[C@H](C)[C@H](NC(=O)[C@H](Cc1ccc(O)cc1)NC(=O)CNC(=O)[C@H](CCSC)NC(=O)[C@H](CCC(=O)O)NC(=O)[C@H](CCC(N)=O)NC(=O)[C@H](Cc1c[nH]c2ccccc12)NC(=O)[C@H](CCCNC(=N)N)NC(=O)[C@H](CCSC)NC(C)=O)C(=O)N[C@@H](Cc1ccccc1)C(=O)N[C@@H](Cc1ccc(O)cc1)C(=O)N1CCC[C@H]1C(=O)N[C@H](C)C(=O)N[C@@H](CCCCN)C(=O)N[C@@H](CC(C)C)C(=O)N[C@@H](CCCNC(=N)N)C(N)=O [compound 164] (HELM PEPTIDE1{[ac].M.R.W.Q.E.M.G.Y.I.F.Y.P.[dA].K.L.R.[am]}$$$$V2.0)	77.2
CC[C@H](C)[C@H](NC(=O)[C@H](Cc1ccc(O)cc1)NC(=O)CNC(=O)[C@H](CCSC)NC(=O)[C@H](CCC(=O)O)NC(=O)[C@H](CCC(N)=O)NC(=O)[C@H](Cc1c[nH]c2ccccc12)NC(=O)[C@H](CCCNC(=N)N)NC(=O)[C@H](CCSC)NC(C)=O)C(=O)N[C@@H](Cc1ccccc1)C(=O)N[C@@H](Cc1ccc(O)cc1)C(=O)N1CCC[C@H]1C(=O)N[C@@H](CCCNC(=N)N)C(=O)N[C@H](C)C(=O)N[C@@H](CC(C)C)C(=O)N[C@@H](CCCNC(=N)N)C(N)=O [compound 165] (HELM PEPTIDE1{[ac].M.R.W.Q.E.M.G.Y.I.F.Y.P.R.[dA].L.R.[am]}$$$$V2.0)	82.0
CC[C@H](C)[C@H](NC(=O)[C@H](Cc1ccc(O)cc1)NC(=O)CNC(=O)[C@H](CCSC)NC(=O)[C@H](CCC(=O)O)NC(=O)[C@H](CCC(N)=O)NC(=O)[C@H](Cc1c[nH]c2ccccc12)NC(=O)[C@H](CCCNC(=N)N)NC(=O)[C@H](CCSC)NC(C)=O)C(=O)N[C@@H](Cc1ccccc1)C(=O)N[C@@H](Cc1ccc(O)cc1)C(=O)N1CCC[C@H]1C(=O)N[C@@H](CCCNC(=N)N)C(=O)N[C@@H](CCCCN)C(=O)N[C@H](C)C(=O)N[C@@H](CCCNC(=N)N)C(N)=O [compound 166] (HELM PEPTIDE1{[ac].M.R.W.Q.E.M.G.Y.I.F.Y.P.R.K.[dA].R.[am]}$$$$V2.0)	78.0
CC[C@H](C)[C@H](NC(=O)[C@H](Cc1ccc(O)cc1)NC(=O)CNC(=O)[C@H](CCSC)NC(=O)[C@H](CCC(=O)O)NC(=O)[C@H](CCC(N)=O)NC(=O)[C@H](Cc1c[nH]c2ccccc12)NC(=O)[C@H](CCCNC(=N)N)NC(=O)[C@H](CCSC)NC(C)=O)C(=O)N[C@@H](Cc1ccccc1)C(=O)N[C@@H](Cc1ccc(O)cc1)C(=O)N1CCC[C@H]1C(=O)N[C@@H](CCCNC(=N)N)C(=O)N[C@@H](CCCCN)C(=O)N[C@@H](CC(C)C)C(=O)N[C@H](C)C(N)=O [compound 167] (HELM PEPTIDE1{[ac].M.R.W.Q.E.M.G.Y.I.F.Y.P.R.K.L.[dA].[am]}$$$$V2.0)	70.9
CC[C@H](C)[C@H](NC(=O)[C@H](Cc1ccc(O)cc1)NC(=O)CNC(=O)[C@H](CCSC)NC(=O)[C@H](CCC(=O)O)NC(=O)[C@H](CCC(N)=O)NC(=O)[C@H](Cc1c[nH]c2ccccc12)NC(=O)[C@H](CCCNC(=N)N)NC(=O)[C@@H](N)CCSC)C(=O)N[C@@H](Cc1ccccc1)C(=O)N[C@@H](Cc1ccc(O)cc1)C(=O)N1CCC[C@H]1C(=O)N[C@@H](CCCNC(=N)N)C(=O)N[C@@H](CCCCN)C(=O)NC(CC)(CC)C(=O)N[C@@H](CCCNC(=N)N)C(=O)O [compound 198] (HELM PEPTIDE1{M.R.W.Q.E.M.G.Y.I.F.Y.P.R.K.[CCC(CC)(N[*:1])C(=O)[*:2]].R}$$$$V2.0)	69.2
CC[C@H](C)[C@H](NC(=O)[C@H](Cc1ccc(O)cc1)NC(=O)CNC(=O)[C@H](CCSC)NC(=O)[C@H](CCC(=O)O)NC(=O)[C@H](CCC(N)=O)NC(=O)[C@H](Cc1c[nH]c2ccccc12)NC(=O)[C@H](CCCNC(=N)N)NC(=O)[C@H](CCSC)NC(C)=O)C(=O)N[C@@H](Cc1ccccc1)C(=O)N[C@@H](Cc1ccc(O)cc1)C(=O)N1CCC[C@H]1C(=O)N[C@@H](CCCNC(=N)N)C(=O)N[C@@H](CCCCN)C(=O)NC(CC)(CC)C(=O)N[C@@H](CCCNC(=N)N)C(=O)O [compound 199] (HELM PEPTIDE1{[ac].M.R.W.Q.E.M.G.Y.I.F.Y.P.R.K.[CCC(CC)(N[*:1])C(=O)[*:2]].R}$$$$V2.0)	48.0
CC[C@H](C)[C@H](NC(=O)[C@H](Cc1ccc(O)cc1)NC(=O)CNC(=O)[C@H](CCSC)NC(=O)[C@H](CCC(=O)O)NC(=O)[C@H](CCC(N)=O)NC(=O)[C@H](Cc1c[nH]c2ccccc12)NC(=O)[C@H](CCCNC(=N)N)NC(=O)[C@@H](N)CCSC)C(=O)N[C@@H](Cc1ccccc1)C(=O)N[C@@H](Cc1ccc(O)cc1)C(=O)N1CCC[C@H]1C(=O)N[C@@H](CCCNC(=N)N)C(=O)N[C@@H](CCCCN)C(=O)NC(CC)(CC)C(=O)N[C@@H](CCCNC(=N)N)C(N)=O [compound 200] (HELM PEPTIDE1{M.R.W.Q.E.M.G.Y.I.F.Y.P.R.K.[CCC(CC)(N[*:1])C(=O)[*:2]].R.[am]}$$$$V2.0)	80.2
CC[C@H](C)[C@H](NC(=O)[C@H](Cc1ccc(O)cc1)NC(=O)CNC(=O)[C@H](CCSC)NC(=O)[C@H](CCC(=O)O)NC(=O)[C@H](CCC(N)=O)NC(=O)[C@H](Cc1c[nH]c2ccccc12)NC(=O)[C@H](CCCNC(=N)N)NC(=O)[C@H](CCSC)NC(C)=O)C(=O)N[C@@H](Cc1ccccc1)C(=O)N[C@@H](Cc1ccc(O)cc1)C(=O)N1CCC[C@H]1C(=O)N[C@@H](CCCNC(=N)N)C(=O)N[C@@H](CCCCN)C(=O)NC(CC)(CC)C(=O)N[C@@H](CCCNC(=N)N)C(N)=O [compound 201] (HELM PEPTIDE1{[ac].M.R.W.Q.E.M.G.Y.I.F.Y.P.R.K.[CCC(CC)(N[*:1])C(=O)[*:2]].R.[am]}$$$$V2.0)	92.8
CC[C@H](C)[C@@H]1NC(=O)[C@H](Cc2ccc(O)cc2)NC(=O)CNC(=O)[C@@H](NC(=O)[C@H](CCC(=O)O)NC(=O)[C@H](CCC(N)=O)NC(=O)[C@H](Cc2c[nH]c3ccccc23)NC(=O)[C@H](CCCNC(=N)N)NC(=O)[C@@H](N)CCSC)CSSC[C@@H](C(=O)N[C@@H](CCCNC(=N)N)C(=O)N[C@@H](CCCCN)C(=O)N[C@@H](CC(C)C)C(=O)N[C@@H](CCCNC(=N)N)C(=O)O)NC(=O)[C@H](Cc2ccc(O)cc2)NC(=O)[C@H](Cc2ccccc2)NC1=O [compound 220] (HELM PEPTIDE1{M.R.W.Q.E.C.G.Y.I.F.Y.C.R.K.L.R}$PEPTIDE1,PEPTIDE1,6:R3-12:R3$$$V2.0)	70.5
CC[C@H](C)[C@@H]1NC(=O)[C@H](Cc2ccc(O)cc2)NC(=O)CNC(=O)[C@@H](NC(=O)[C@H](CCC(=O)O)NC(=O)[C@H](CCC(N)=O)NC(=O)[C@H](Cc2c[nH]c3ccccc23)NC(=O)[C@H](CCCNC(=N)N)NC(=O)[C@@H](N)CCSC)CCC(=O)NCCCC[C@@H](C(=O)N[C@@H](CCCNC(=N)N)C(=O)N[C@@H](CCCCN)C(=O)N[C@@H](CC(C)C)C(=O)N[C@@H](CCCNC(=N)N)C(=O)O)NC(=O)[C@H](Cc2ccc(O)cc2)NC(=O)[C@H](Cc2ccccc2)NC1=O [compound 221] (HELM PEPTIDE1{M.R.W.Q.E.E.G.Y.I.F.Y.K.R.K.L.R}$PEPTIDE1,PEPTIDE1,6:R3-12:R3$$$V2.0)	25.5
